The results in this text go back to US20060205949A1, “Crystalline forms of a biphenyl compound” (THERAVANCE, INC., priority 2005, published 2006).

Test [1] deals with T1, M3 muscarinic receptor subtype (hM3) (Homo sapiens, UniProt P20309).
T1 construct: expressed in transfected cells
The test is described as follows: Radioligand binding assay ([3H]-NMS displacement). To be noted: CHO cell membranes, tested in this or a similar assay. The method, then:
CHO cell lines stably expressing cloned human hM1, hM2, hM3 and hM4 muscarinic receptor subtypes, respectively, were grown to near confluency in medium consisting of HAM's F-12 supplemented with 10% FBS and 250 μg/mL Geneticin. The cells were grown in a 5% CO2, 37° C. incubator and lifted with 2 mM EDTA in DPBS. Cells were collected by 5 minute centrifugation at 650×g, and cell pellets were either stored frozen at −80° C. or membranes were prepared immediately. For membrane preparation, cell pellets were resuspended in lysis buffer and homogenized with a Polytron PT-2100 tissue disrupter (Kinematica AG; 20 seconds×2 bursts). Crude membranes were centrifuged at 40,000×g for 15 minutes at 4° C. […] The protein concentration of the membrane suspension was determined by the method described in Lowry, O. et al., Journal of Biochemistry 193:265 (1951). […]
Radioligand binding assays were performed in 96-well microtiter plates in a total assay volume of 100 μL. […] Filter plates were rinsed three times with wash buffer (10 mM HEPES) to remove unbound radioactivity. […] The plates were then counted in a PerkinElmer Topcount liquid scintillation counter (PerkinElmer Inc., Wellesley, Mass.). Binding data were analyzed by nonlinear regression analysis with the GraphPad Prism Software package (GraphPad Software, Inc., San Diego, Calif.) using the one-site competition model. […]

For test [2], the target named is T2, hM3 receptor (CHO cells) (Homo sapiens, UniProt P20309).
T2 construct: expressed in transfected cells
The test is described as follows: Blockade of agonist-mediated calcium release via FLIPR. In kind it is cell-based. The note with it: CHO cells stably expressing the hM3 receptor, this or a similar assay. The source says: Muscarinic receptor subtypes (M1, M3 and M5 receptors), which couple to Gq proteins, activate the phospholipase C (PLC) pathway upon agonist binding to the receptor. As a result, activated PLC hydrolyzes phosphatyl inositol diphosphate (PIP2) to diacylglycerol (DAG) and […] (IP3), which in turn generates calcium release from intracellular stores, i.e., endoplasmic and sarcoplasmic reticulum. The FLIPR (Molecular Devices, Sunnyvale, Calif.) assay capitalizes on this increase in intracellular calcium by using a calcium sensitive dye (Fluo-4AM, Molecular Probes, Eugene, Oreg.) that fluoresces when free calcium binds. This fluorescence event was measured in real time by the FLIPR, which detected the change in fluorescence from a monolayer of cells cloned with human M1 and M3, and chimpanzee M5 receptors. Antagonist potency was determined by the ability of antagonists to inhibit agonist-mediated increases in intracellular calcium.
For FLIPR calcium stimulation assays, CHO cells stably expressing the hM1, hM3 and cM5 receptors were seeded into 96-well FLIPR plates the night before the assay was done. […]
To determine antagonist potency, the dose-dependent stimulation of intracellular Ca^2+ release for oxotremorine was first determined so that antagonist potency can later be measured against oxotremorine stimulation at an EC90 concentration. […]

Bounds are passed on as bounds.

T1 sequence (P20309 whole entry): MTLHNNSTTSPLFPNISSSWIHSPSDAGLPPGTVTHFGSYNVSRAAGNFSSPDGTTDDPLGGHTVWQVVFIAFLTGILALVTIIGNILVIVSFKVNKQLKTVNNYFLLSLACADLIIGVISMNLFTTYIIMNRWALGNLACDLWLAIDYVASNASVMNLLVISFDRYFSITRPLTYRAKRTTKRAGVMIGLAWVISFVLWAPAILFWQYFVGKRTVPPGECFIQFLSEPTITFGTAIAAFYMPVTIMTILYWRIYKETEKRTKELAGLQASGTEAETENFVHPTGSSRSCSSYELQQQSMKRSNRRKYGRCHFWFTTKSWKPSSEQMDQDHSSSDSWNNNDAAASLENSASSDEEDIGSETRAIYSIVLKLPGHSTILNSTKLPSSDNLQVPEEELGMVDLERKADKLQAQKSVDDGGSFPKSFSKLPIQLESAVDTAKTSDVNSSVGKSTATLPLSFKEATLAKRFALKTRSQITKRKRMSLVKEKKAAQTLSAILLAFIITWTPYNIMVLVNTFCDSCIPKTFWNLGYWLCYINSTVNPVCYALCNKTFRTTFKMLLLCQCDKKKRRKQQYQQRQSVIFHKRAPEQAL
T2 sequence (P20309 whole entry): as above

One may read the Ki as a dissociation constant, usually derived from enzyme kinetics or from competition with a known ligand. Turning to `O=C(CCN1CCC(OC(=O)Nc2ccccc2-c2ccccc2)CC1)NCCCCCNCc1ccc(O)cc1` [compound of formula I, biphenyl-2-ylcarbamic acid 1-{2-[5-(4-hydroxybenzylamino)pentylcarbamoyl]ethyl}piperidin-4-yl ester], the Ki is less than 5 nM in test [1] and less than 10 nM in test [2].
